{"source": "patent EP4809830A1", "about": "“USE OF 2'-FUCOSYLLACTOSE IN PROMOTING INTESTINAL DEVELOPMENT AND PREVENTING INTESTINAL DAMAGE” (Ausnutria Dairy (China) Co., Ltd., priority 2024, dated 2025)", "key": {"[1]": {"system": "Caco-2 cells", "test": "Effects of 2'-FL on glycocalyx development in intestinal epithelial cells (qPCR of glycocalyx development genes)", "type": "cell-based, human", "description": "(§1) Caco-2 cell culture: human colon adenocarcinoma cells Caco-2 were cultured in MEM complete medium containing 20% high-quality fetal bovine serum, grown in 25 cm^2 cell culture flasks and incubated in a carbon dioxide incubator at 37 °C, 5% CO2, and 95% relative humidity. The culture medium was changed every one or two days. When the cells reach 80%-90% confluence, the cells were digested with 0.25% trypsin digestion solution and subcultured at a ratio of 1:3.\n1.1 Experiments: Caco-2 cells were adjusted to a density of 1 × 10^5 cells/cm^2 and inoculated in 24-well plates. According to groups, 2'-FL at concentrations of 0.6 mg/mL, 1.2 mg/mL, and 2.4 mg/mL was added to MEM complete medium, respectively. After incubation for 3 days, MEM medium was served as a blank control. Total RNA was extracted from the cells and reverse transcribed. Transcriptional levels of genes related to glycocalyx development, including glypican 1 (gpc1), hyaluronic acid synthases (has1, has2 and has3), and exostosin glycosyltransferases (ext1 and ext2) in the Caco-2 cells were measured by qPCR. qPCR primer sequences were shown in Table 1.\n(§2) qPCR kit manufacturer: Nanjing Vazyme Biotechnology Co., Ltd.; Catalog number: AceQ Universal U+ Probe Master Mix V2; amplification program: step 1: 37 °C for 2 min, and cycle number 1; step 2: 95 °C for 5 min, and cycle number 1; and step 3: 95 °C for 10 s, 60°C for 30 s, and cycle number 45."}, "[2]": {"system": "Caco-2 cells", "test": "Preventive effects of 2'-FL on glycocalyx damage caused by LPS (qPCR of glycocalyx development genes)", "type": "cell-based, human", "details": "for transcriptional level of gpc1: then 100 ng/mL LPS 24 h; for transcriptional level of ext2 / transcriptional level of has2 / transcriptional level of has3 / transcription level of has1 / transcriptional level of ext1: then LPS", "description": "as §1, §2\n2.1 Experiments: Caco-2 cells were adjusted to a density of 1 × 10^5 cells/cm^2 and inoculated in 24-well plates. According to groups, 2'-FL at concentrations of 0.6 mg/mL, 1.2 mg/mL, and 2.4 mg/mL was added to MEM complete medium, respectively. After incubation for 3 days, culture supernatant was removed, and fresh MEM complete medium with a final concentration of 100 ng/mL LPS was added and they are co-incubated for 24 h. Cells with added LPS but without 2'-FL were designated as a model group, and cells without added LPS or 2'-FL were designated as a blank group. Total RNA was extracted from the cells and reverse transcribed. Transcriptional levels of genes related to glycocalyx development, including glypican 1 (gpc1), hyaluronic acid synthases (has1, has2 and has3), and exostosin glycosyltransferases (ext1 and ext2), in the Caco-2 cells were measured by qPCR."}, "[3]": {"details": "all three concentrations of 2'-FL (0.6, 1.2, 2.4 mg/mL), 3 days, vs blank control, p < 0.05"}, "[4]": {"details": "of 0.6, 1.2, 2.4 mg/mL tested, effect decreases with increasing concentration"}, "[5]": {"details": "summary statement, 0.6mg/mL-1.2 mg/mL"}, "[6]": {"details": "2.4 mg/mL 2'-FL, compared to the model group, p < 0.05"}, "[7]": {"details": "different concentrations of 2'-FL 3 days, compared with the blank group"}, "[8]": {"details": "prevention group with different concentrations of 2'-FL, vs the blank group, p > 0.05"}, "[9]": {"details": "summary statement, 0.6mg/mL-2.4 mg/mL"}}, "data": [{"smiles": "C[C@@H]1O[C@@H](O[C@H]2[C@H](O[C@H]3[C@H](O)[C@@H](O)C(O)O[C@@H]3CO)O[C@H](CO)[C@H](O)[C@@H]2O)[C@@H](O)[C@H](O)[C@@H]1O", "note": "(stereo partly shown) [2'-FL, 2'-fucosyllactose]", "values": [{"measurement": "transcriptional level of ext1 mRNA", "setting": "[1]; [3]", "result": "significantly upregulate"}, {"measurement": "transcriptional level of ext2 mRNA", "setting": "[1]; [3]", "result": "significantly upregulate"}, {"measurement": "transcriptional level of gpc1 mRNA", "setting": "[1]; [3]", "result": "significantly upregulate"}, {"measurement": "transcriptional level of has1 mRNA", "setting": "[1]; [3]", "result": "significantly upregulate"}, {"measurement": "transcriptional level of has2 mRNA", "setting": "[1]; [3]", "result": "significantly upregulate"}, {"measurement": "transcriptional level of has3 mRNA", "setting": "[1]; [3]", "result": "significantly upregulate"}, {"measurement": "concentration at which the upregulation effect on the transcriptional level of ext1 reaches a maximum", "setting": "[1]; [4]", "result": 0.6, "unit": "mg/mL"}, {"measurement": "concentration at which the upregulation effect on the transcriptional level of ext2 reaches a maximum", "setting": "[1]; [4]", "result": 0.6, "unit": "mg/mL"}, {"measurement": "concentration at which the upregulation effect on the transcriptional level of has1 reaches a maximum", "setting": "[1]; [4]", "result": 0.6, "unit": "mg/mL"}, {"measurement": "concentration at which the upregulation effect on the transcriptional level of has2 reaches a maximum", "setting": "[1]; [4]", "result": 0.6, "unit": "mg/mL"}, {"measurement": "concentration at which the upregulation effect on the transcriptional level of has3 reaches a maximum", "setting": "[1]; [4]", "result": 0.6, "unit": "mg/mL"}, {"measurement": "concentration at which the upregulation effect on the transcriptional level of gpc1 reaches a maximum", "setting": "[1]; of 0.6, 1.2, 2.4 mg/mL tested, first increasing and then decreasing", "result": 1.2, "unit": "mg/mL"}, {"measurement": "transcriptional level of ext1", "setting": "[1]; summary statement, 0.6 mg/mL", "result": "significantly upregulate"}, {"measurement": "transcriptional level of ext2", "setting": "[1]; summary statement, 0.6 mg/mL", "result": "significantly upregulate"}, {"measurement": "transcriptional level of has1", "setting": "[1]; summary statement, 0.6 mg/mL", "result": "significantly upregulate"}, {"measurement": "transcriptional level of has2", "setting": "[1]; summary statement, 0.6 mg/mL", "result": "significantly upregulate"}, {"measurement": "transcriptional level of has3", "setting": "[1]; summary statement, 0.6 mg/mL", "result": "significantly upregulate"}, {"measurement": "transcriptional level of gpc1", "setting": "[1]; [5]", "result": "significantly upregulate"}, {"measurement": "transcriptional level of gpc1", "setting": "[2]; 0.6 mg/mL 2'-FL 3 days, compared with the blank group", "result": "significantly upregulate"}, {"measurement": "transcriptional level of gpc1", "setting": "[2]; 1.2 mg/mL 2'-FL 3 days, compared with the blank group", "result": "significantly upregulate"}, {"measurement": "transcriptional level of ext2", "setting": "[2]; 1.2 mg/mL 2'-FL, p<0.05", "result": "significantly upregulate"}, {"measurement": "transcriptional level of has2", "setting": "[2]; [6]", "result": "significantly upregulated"}, {"measurement": "transcriptional level of has3", "setting": "[2]; [6]", "result": "significantly upregulated"}, {"measurement": "transcription level of has1", "setting": "[2]; 2.4 mg/mL 2'-FL, compared with the model group", "result": "significantly upregulated"}, {"measurement": "transcriptional level of ext2", "setting": "[2]; 2.4 mg/mL 2'-FL, p<0.05", "result": "significantly upregulate"}, {"measurement": "transcriptional level of ext1", "setting": "[2]; [7]", "result": "still upregulated"}, {"measurement": "transcriptional level of ext2", "setting": "[2]; [7]", "result": "still upregulated"}, {"measurement": "transcriptional level of gpc1", "setting": "[2]; different concentrations of 2'-FL (0.6, 1.2, 2.4 mg/mL) 3 days, compared with the blank group", "result": "still upregulated"}, {"measurement": "transcriptional level of has2", "setting": "[2]; [8]", "result": "no significant differences"}, {"measurement": "transcriptional level of has3", "setting": "[2]; [8]", "result": "no significant differences"}, {"measurement": "transcription level of has1", "setting": "[2]; prevention groups with different concentrations of 2'-FL (0.6, 1.2, 2.4 mg/mL), compared with the blank group, p < 0.05", "result": "significantly downregulated"}, {"measurement": "downregulation of the transcriptional level of gpc1 caused by LPS", "setting": "[2]; [5]", "result": "significantly prevent downregulation"}, {"measurement": "downregulation of the transcriptional level of ext1 caused by LPS", "setting": "[2]; [9]", "result": "significantly prevent downregulation"}, {"measurement": "downregulation of the transcriptional level of ext2 caused by LPS", "setting": "[2]; [9]", "result": "significantly prevent downregulation"}, {"measurement": "downregulation of the transcriptional level of has2 caused by LPS", "setting": "[2]; [9]", "result": "significantly prevent downregulation"}, {"measurement": "downregulation of the transcriptional level of has3 caused by LPS", "setting": "[2]; [9]", "result": "significantly prevent downregulation"}, {"measurement": "transcriptional level of ext1", "setting": "[2]; three concentrations of 2'-FL (0.6, 1.2, 2.4 mg/mL), p<0.05", "result": "significantly upregulate"}]}]}
